The source of these data is patent US8604059B2, “Thioxanthene derivatives for the treatment of infectious diseases” (BKG Pharma APS, priority 2009, dated 2013).

As a reminder, the EC50 is the concentration at which the effect is half-maximal.

Values joined by “and” are separate entries in the source; they are usually repeats but may differ in a detail not shown here. Equal entries are not always repeated. A value given as a limit tells only on which side of the number the result lay.

In assay [1] the test system is S. aureus O11. Kind of assay: Emergence of in vitro-selected single-step ciprofloxacin resistance. Type of assay: cell-based. Conditions: ciprofloxacin 1 μg per ml (two times the MIC); inhibitor 1 μg/ml; 24 h. As for the experimental part:
The frequency of mutant selection was determined to be 3×10−8 by comparing the number of colonies that grew on plates containing the anti-infective agent with the number of colonies obtained upon plating appropriate dilutions in the absence of anti-infective agents.

Assay [2] relates to E. coli MDR clinical isolates. The experiment in a line: FIC index, synergy with antibiotics (Table 4a). Type of assay: cell-based. Particulars: 8 MDR E. coli, mean, compound at ¼ of MIC. As for the experimental part:
The effect of the compounds was tested according to the methods described in WO2005/105145. In brief, cell growth was tested using the MIC susceptibility tests by use of the microdilution broth method in accordance to the NCCLS Guidelines (NCCLS Guidelines, Methods for Dilution Antimicrobial Susceptibility Tests for Bacteria That Grow Aerobically; Approved Standard, Sixth Edition, Volume 23; Number 2).
The Fractional Inhibitory Concentration (FIC) index were calculated for each compound as described in WO2005/105145. Synergy was defined for Fractional Inhibitory Concentration (FIC) indices less than 0.5
E. coli: 8 in vivo-selected multidrug resistant clinical isolates of E. coli. Resistant to tetracycline, beta-lactams, fluoroquinolones, chloramphenicol and aminoglycoside

For assay [3], the system named is strain IIIB of HIV-1. The experiment in a line: Inhibition of HIV-1 replication in MT4 cells, MTT assay. Type of assay: cell-based. As for the experimental part: The enhancing effect of compound 3 on anti-viral agents was studied by checkerboard combination studies exposing HIV infected cells to 0-3 μM anti-viral agent in the absence or presence of compound 3 in concentrations from 0 to 6 μM. Each experiment was repeated in tripleduplicate. MIC values represent the mean values of two separate experiments.
The HIV-1 strain HTLV-IIIB were propagated in H9 cells at 37° C., 5% CO2 using RPMI 1640 with 10% heat-inactivated foetal calf serum (FCS) and antibiotics (growth medium). Culture supernatant was filtered ([…]), aliquotted, and stored at −80° C. until use. The HIV-1 strain was obtained from NIH AIDS Research and Reference Program.
Compounds were examined for possible antiviral activity against strain IIIB of HIV-1 using MT4 cells as target cells. MT4 cells were incubated with virus (0.005 MOI) and growth medium containing the test dilutions of compound(s) for six days in parallel with virus-infected and uninfected control cultures without compound added. Expression of HIV in the cultures was indirectly quantified using the MTT assay as previously described. Compounds mediating less than 30% reduction of HIV expression were considered without biological activity. Compounds were tested in parallel for cytotoxic effect in uninfected MT4 cultures containing the test dilutions of compound as described above. Cultures for test of both antiviral activity and cytotoxic effect were set up in tripleduplicates, […] per culture in micro titre plates. A 30% inhibition of cell growth relative to control cultures was considered significant. The 50% inhibitory concentration was determined by interpolation from the plots of percent inhibition versus concentration of compound.
EC50 is defined as the effective concentration that inhibits 50% of viral production, 50% of viral infectivity, or 50% of the virus-induced cytopathic effect.
On the technique in general: Tetrazolium dyes change colour on reduction, which living cells bring about.

In assay [4] the test system is Enterococcus faecalis ENT 28 (VRE). The experiment in a line: Mouse peritonitis model, neutropenic NMRI mice, enhancing effect with linezolid. Type of assay: in vivo. As to the method: A multiresistant clinical isolate of Enterococcus faecalis ENT 28 (VRE) from human urine was used.
Female NMRI mice (age, approximately 6 to 8 weeks; weight, 30±2 g) were used for the mouse […] peritonitis model (as described below).
In order to detect any synergistic effect, infected mice were treated with sub-therapeutic doses of each test compound alone or a mixture of the two compounds.
Bacterial suspensions were prepared from fresh overnight cultures (made from frozen stock cultures) on 5% blood agar plates as described above. The inoculum for the mouse peritonitis model was prepared immediately before use and was adjusted at 540 nm of giving a density of approximately 10^7 CFU/ml. The size of the inoculum was determined by viability counting on 5% blood agar.
Neutropenia was introduced by pretreating the mice with cyclophosphamide (6 mg daily for three days). […] Antibiotic therapy was initiated just after inoculation. Linezolid and compound 3 was administered subcutaneously in the neck region in a volume of 0.5 ml per dose. 3 mice were in each treatment group. Inoculated untreated control mice were included in all trials. (Method reference: Erlandsdottir et al; Antimicrob Agents Chemother. 2001 April; 45(4):1078-85)
The effects of the various treatment regimens were determined during 5 h of treatment by evaluation of bacterial counts in the peritoneal fluid. After the mice were killed, peritoneal washes were performed by injecting 2 ml of sterile saline intraperitoneally, followed by massage of the abdomen and then opening of the peritoneum to collect the fluid. Peritoneal fluids were immediately diluted 10-fold in saline, from which 20 μl was plated onto 5% blood agar plates in spots, with subsequent counting of colonies after incubation overnight at 35° C. The lowest detection levels for bacterial counts in blood and peritoneal fluid were 50 and 250 CFU/ml, respectively.

Assay [5] relates to Multiresistant clinical isolates E. coli. Kind of assay: Maximal reversal of resistance and synergistic effect (Table 4c). Type of assay: cell-based. Particulars: E. coli multiresistant isolates. As for the experimental part:
The maximal obtained reversal of resistance and synergistic effect was tested as previously described.
Strains: Multiresistant clinical isolates E. coli, Ten strains in each group.

The mark [6] stands for this setting: treatment 0 and 2 hours, sampling 5 hours, sub-therapeutic doses as in Table 9, individual mice.

Turning to `Clc1ccc2c(c1)/C(=C/CCC1CCNCC1)c1ccccc1S2` [Compound 3], in assay [1], the “Frequency of emergence of resistance” value was <1 × 10^−10. Further, the FIC index in assay [2] (with Ampicillin), in assay [2] (with Ciprofloxacin), in assay [2] (with Gentamycin) and in assay [2] (with Tetracycline) was 0.44 each time. The EC50 in assay [3] (Human immunodeficiency virus 1, IIIB, 144 h, single agent, MT4 cells, six days, read-out: EC50) is above 4 µM. In assay [3] (at the concentrations used), the “Antiviral effect alone” value is listed as “no antiviral or cytotoxic effect”. Also, the “Enhancement of the antiviral effect of AZT” value in assay [3] (combination of compound 3 and AZT) was 5 time. Further, the “Effect on the infection / bacteria in mouse peritoneum” value in assay [4] (sub-therapeutic dose alone) is on record as “did not affect the bacteria”. Also, in assay [4] (treatment 0 and 2 hours, sampling 5 hours, Linezolid 1 mg/ml 0.5 ml, Compound 3 0.1 mg/ml 0.5, combination Linezolid 2 mg/ml (0.25 ml) and compound 3 0.2 mg/ml (0.25 ml), individual mice), the score at sampling was 1 and 2 (2×). Moreover, in assay [4] (setting [6]), the Cfu/ml peritoneum is 2.35E+09 Cfu/ml and 2.63E+09 Cfu/ml and 3.15E+09 Cfu/ml. Moreover, in assay [4] (setting [6]), the “log (cfu/ml) peritoneum” value is 9.37 log (cfu/ml) and 9.42 log (cfu/ml) and 9.50 log (cfu/ml). Moreover, the “Maximal reversal of resistance: concentration of compound” value in assay [5] worked out at 0.6 µg/mL.
